Measurements as given in paper PMC5218480 (PLoS ONE, 2017).

Tested on: MV-4-11 cells
Assay: Gene expression microarray analysis (Affymetrix PrimeView) and GSEA
Format: cell-based, human
Set-up: RFU PODN (11730768_x_at) / Fold change /veh PODN (11730768_x_at) / RFU LINC00158 (11744669_a_at) / Fold change /veh LINC00158 (11744669_a_at) / RFU DUSP10 (11751237_a_at) / Fold change /veh DUSP10 (11751237_a_at) / RFU ID3 (11757404_x_at) / Fold change /veh ID3 (11757404_x_at) / RFU PLEKHG5 (11737974_s_at) / Fold change /veh PLEKHG5 (11737974_s_at) / RFU LRRC4B (11730491_at) / Fold change /veh LRRC4B (11730491_at) / RFU GIMAP4 (11747438_a_at) / Fold change /veh GIMAP4 (11747438_a_at) / RFU KRT8 (11758183_x_at) / Fold change /veh KRT8 (11758183_x_at) / RFU CNN1 (11734310_a_at) / Fold change /veh CNN1 (11734310_a_at) / RFU VPS37D (11726825_at) / Fold change /veh VPS37D (11726825_at) / RFU C10orf10 (11716522_x_at) / Fold change /veh C10orf10 (11716522_x_at) / RFU KIR2DL2 /// KIR2DL4 /// KIR2DL5A /// KIR2DL5B /// KIR2DS1 /// KIR2DS2 /// KIR2DS3 /// KIR2DS4 /// KIR3DL3 /// KIR3DL3 /// KIR3DS1 (11738374_at) / Fold change /veh KIR2DL2 /// KIR2DL4 /// KIR2DL5A /// KIR2DL5B /// KIR2DS1 /// KIR2DS2 /// KIR2DS3 /// KIR2DS4 /// KIR3DL3 /// KIR3DL3 /// KIR3DS1 (11738374_at) / RFU C1QL1 (11718748_at) / Fold change /veh C1QL1 (11718748_at) / RFU TMPRSS4 (11747572_a_at) / Fold change /veh TMPRSS4 (11747572_a_at) / RFU HAMP (11756126_x_at) / Fold change /veh HAMP (11756126_x_at) / RFU RNFT2 (11725882_a_at) / Fold change /veh RNFT2 (11725882_a_at) / RFU NR4A2 (11747474_a_at) / Fold change /veh NR4A2 (11747474_a_at) / RFU ABCC12 (11746883_a_at) / Fold change /veh ABCC12 (11746883_a_at) / RFU TMEM136 (11760407_x_at) / Fold change /veh TMEM136 (11760407_x_at) / RFU CLDN22 /// WWC2 (11732394_at) / Fold change /veh CLDN22 /// WWC2 (11732394_at) / RFU HLA-DPB1 (11760878_x_at) / Fold change /veh HLA-DPB1 (11760878_x_at) / RFU SPINT1 (11716480_a_at) / Fold change /veh SPINT1 (11716480_a_at) / RFU GAP43 (11754022_s_at) / Fold change /veh GAP43 (11754022_s_at) / RFU A4GNT (11735810_at) / Fold change /veh A4GNT (11735810_at) / RFU PRB3 (11715151_x_at) / Fold change /veh PRB3 (11715151_x_at) / RFU TUBB4B (11761932_at) / Fold change /veh TUBB4B (11761932_at) / RFU CAPN14 (11732068_a_at) / Fold change /veh CAPN14 (11732068_a_at) / RFU TMCC2 (11721928_a_at) / Fold change /veh TMCC2 (11721928_a_at) / RFU IRGQ (11745062_a_at) / Fold change /veh IRGQ (11745062_a_at) / RFU FAM174B (11720279_a_at) / Fold change /veh FAM174B (11720279_a_at) / RFU TMPRSS4 (11748680_a_at) / Fold change /veh TMPRSS4 (11748680_a_at) / RFU FAM212B (11763350_a_at) / Fold change /veh FAM212B (11763350_a_at) / RFU PLEKHG5 (11743358_a_at) / Fold change /veh PLEKHG5 (11743358_a_at) / RFU ZSCAN30 (11745921_a_at) / Fold change /veh ZSCAN30 (11745921_a_at) / RFU CMKLR1 (11741424_a_at) / Fold change /veh CMKLR1 (11741424_a_at) / RFU LOC101060620 /// MAPK8IP1 (11723275_at) / Fold change /veh LOC101060620 /// MAPK8IP1 (11723275_at) / RFU SPTSSB (11747773_x_at) / Fold change /veh SPTSSB (11747773_x_at) / RFU PRSS12 (11739890_at) / Fold change /veh PRSS12 (11739890_at) / RFU BIN1 (11741810_x_at) / Fold change /veh BIN1 (11741810_x_at) / RFU WNT11 (11732464_a_at) / Fold change /veh WNT11 (11732464_a_at) / RFU C10orf10 (11716521_a_at) / Fold change /veh C10orf10 (11716521_a_at) / RFU C5orf56 (11738089_at) / Fold change /veh C5orf56 (11738089_at) / RFU CYB561 (11721691_x_at) / Fold change /veh CYB561 (11721691_x_at) / RFU ANKRD19P (11752326_a_at) / Fold change /veh ANKRD19P (11752326_a_at) / RFU OR2T12 /// OR2T33 /// OR2T8 (11738714_s_at) / Fold change /veh OR2T12 /// OR2T33 /// OR2T8 (11738714_s_at) / RFU VCAN (11748164_a_at) / Fold change /veh VCAN (11748164_a_at) / RFU JSRP1 (11732532_at) / Fold change /veh JSRP1 (11732532_at) / RFU KRTAP10-11 (11738290_x_at) / Fold change /veh KRTAP10-11 (11738290_x_at) / RFU MYO3A (11730013_a_at) / Fold change /veh MYO3A (11730013_a_at) / RFU EBF3 (11725865_a_at) / Fold change /veh EBF3 (11725865_a_at) / RFU CAMK2N1 (11719241_x_at) / Fold change /veh CAMK2N1 (11719241_x_at) / RFU C5orf56 (11738088_a_at) / Fold change /veh C5orf56 (11738088_a_at) / RFU OLFML3 (11715873_a_at) / Fold change /veh OLFML3 (11715873_a_at) / RFU LOC100653217 /// NTM (11731650_a_at) / Fold change /veh LOC100653217 /// NTM (11731650_a_at) / RFU MAPK11 (11762145_a_at) / Fold change /veh MAPK11 (11762145_a_at) / RFU FIZ1 (11724087_x_at) / Fold change /veh FIZ1 (11724087_x_at) / RFU OASL (11726364_x_at) / Fold change /veh OASL (11726364_x_at) / RFU SOX15 (11748057_x_at) / Fold change /veh SOX15 (11748057_x_at) / RFU CD79A (11719716_a_at) / Fold change /veh CD79A (11719716_a_at) / RFU HIST1H1D (11736915_at) / Fold change /veh HIST1H1D (11736915_at) / RFU CASKIN2 (11723855_a_at) / Fold change /veh CASKIN2 (11723855_a_at) / RFU LOC730098 (11760151_x_at) / Fold change /veh LOC730098 (11760151_x_at) / RFU OR4N2 (11742367_at) / Fold change /veh OR4N2 (11742367_at) / RFU PRRT2 (11749266_a_at) / Fold change /veh PRRT2 (11749266_a_at) / RFU SNX32 (11753110_a_at) / Fold change /veh SNX32 (11753110_a_at) / RFU CDHR5 (11726645_a_at) / Fold change /veh CDHR5 (11726645_a_at) / RFU RCAN1 (11760418_a_at) / Fold change /veh RCAN1 (11760418_a_at) / RFU FAM167A (11723789_a_at) / Fold change /veh FAM167A (11723789_a_at) / RFU FAM26E (11764081_at) / Fold change /veh FAM26E (11764081_at) / RFU ISYNA1 (11749810_s_at) / Fold change /veh ISYNA1 (11749810_s_at) / RFU ACY1 (11761880_at) / Fold change /veh ACY1 (11761880_at) / RFU 11764098_at / Fold change /veh 11764098_at / RFU SAMD14 (11745864_x_at) / Fold change /veh SAMD14 (11745864_x_at) / RFU NPB (11741838_a_at) / Fold change /veh NPB (11741838_a_at) / RFU TMPRSS6 (11731388_a_at) / Fold change /veh TMPRSS6 (11731388_a_at) / RFU KRTAP10-2 (11738614_at) / Fold change /veh KRTAP10-2 (11738614_at) / RFU ARHGAP8 /// PRR5-ARHGAP8 (11727945_x_at) / Fold change /veh ARHGAP8 /// PRR5-ARHGAP8 (11727945_x_at) / RFU KRTAP5-7 /// NADSYN1 (11734609_at) / Fold change /veh KRTAP5-7 /// NADSYN1 (11734609_at) / RFU RASL12 (11751679_a_at) / Fold change /veh RASL12 (11751679_a_at) / RFU CDKN2B (11736163_a_at) / Fold change /veh CDKN2B (11736163_a_at) / RFU PRF1 (11729649_at) / Fold change /veh PRF1 (11729649_at) / RFU, ZNF638 /// ZNF638-IT1 / Fold change vs veh, ZNF638 /// ZNF638-IT1 / RFU, PANK3 / Fold change vs veh, PANK3 / RFU, SH3YL1 / Fold change vs veh, SH3YL1 / RFU, ZEB2 / Fold change vs veh, ZEB2 / RFU, NRIP1 / Fold change vs veh, NRIP1 / RFU, PTTG1IP / Fold change vs veh, PTTG1IP / RFU, CAPN2 / Fold change vs veh, CAPN2 / RFU, MED14 / Fold change vs veh, MED14 / RFU, SNORA58 / Fold change vs veh, SNORA58 / RFU, C1orf63 / Fold change vs veh, C1orf63 / RFU, LRRFIP1 / Fold change vs veh, LRRFIP1 / RFU, NDUFAF7 / Fold change vs veh, NDUFAF7 / RFU, SLC12A2 / Fold change vs veh, SLC12A2 / RFU, IBTK / Fold change vs veh, IBTK / RFU, ESF1 / Fold change vs veh, ESF1 / Fold change vs veh, TMEM50B / RFU, TAOK1 / Fold change vs veh, TAOK1 / RFU, ACBD3 / Fold change vs veh, ACBD3 / RFU, TMA16 / Fold change vs veh, TMA16 / RFU, RWDD3 / Fold change vs veh, RWDD3 / RFU, BCAT1 / Fold change vs veh, BCAT1 / RFU, EDEM3 / Fold change vs veh, EDEM3 / RFU, TMEM33 / Fold change vs veh, TMEM33 / RFU, WDR75 / Fold change vs veh, WDR75 / RFU, AHCTF1 / Fold change vs veh, AHCTF1 / RFU, TFRC / Fold change vs veh, TFRC / RFU, ZDHHC17 / Fold change vs veh, ZDHHC17 / RFU, NOM1 / Fold change vs veh, NOM1 / RFU, ARL8B / Fold change vs veh, ARL8B / RFU, ZBTB11 / Fold change vs veh, ZBTB11 / RFU, TAMM41 / Fold change vs veh, TAMM41 / RFU, KIAA1704 /// LOC100996395 / Fold change vs veh, KIAA1704 /// LOC100996395 / RFU, ING1 / Fold change vs veh, ING1 / RFU, TRMT61B / Fold change vs veh, TRMT61B / RFU, FUBP3 / Fold change vs veh, FUBP3 / RFU, TP53 / Fold change vs veh, TP53 / RFU, TNKS2 / Fold change vs veh, TNKS2 / RFU, ZFP14 / Fold change vs veh, ZFP14 / RFU, ACTR2 / Fold change vs veh, ACTR2 / RFU, PPP3R1 / Fold change vs veh, PPP3R1 / RFU, PIK3R1 / Fold change vs veh, PIK3R1 / RFU, HNRNPA1 / Fold change vs veh, HNRNPA1 / RFU, RNF170 / Fold change vs veh, RNF170 / RFU, ZNF28 / Fold change vs veh, ZNF28 / RFU, RNGTT / Fold change vs veh, RNGTT / RFU, OGT / Fold change vs veh, OGT / RFU, BRD1 / Fold change vs veh, BRD1 / RFU, MARS / Fold change vs veh, MARS / RFU, ZNF655 / Fold change vs veh, ZNF655 / RFU, FAHD1 / Fold change vs veh, FAHD1 / RFU, BDP1 / Fold change vs veh, BDP1 / RFU, LRRCC1 / Fold change vs veh, LRRCC1 / RFU, ARID1A / Fold change vs veh, ARID1A / RFU, ZNF146 / Fold change vs veh, ZNF146 / RFU, ZNF330 / Fold change vs veh, ZNF330 / RFU, GPN3 / Fold change vs veh, GPN3 / RFU, C9orf123 / Fold change vs veh, C9orf123 / RFU, N4BP2L2 / Fold change vs veh, N4BP2L2 / RFU, ARFIP1 / Fold change vs veh, ARFIP1 / RFU, FAM179B / Fold change vs veh, FAM179B / RFU, BCL10 / Fold change vs veh, BCL10 / RFU, UHRF1BP1L / Fold change vs veh, UHRF1BP1L / RFU, BET1 / Fold change vs veh, BET1 / RFU, CNOT2 / Fold change vs veh, CNOT2 / RFU, ZNF268 / Fold change vs veh, ZNF268 / Fold change vs veh, ZNF507 / RFU, DGCR2 / Fold change vs veh, DGCR2 / RFU, WDSUB1 / Fold change vs veh, WDSUB1 / Fold change vs veh, HSP90B1 /// MIR3652 / RFU, ADSS / Fold change vs veh, ADSS / RFU, GK / Fold change vs veh, GK / RFU, ZNF148 / Fold change vs veh, ZNF148 / RFU, TAF9 / Fold change vs veh, TAF9 / RFU, SLC1A5 / Fold change vs veh, SLC1A5 / RFU, SLMO2 / Fold change vs veh, SLMO2 / RFU, ABCC4 / Fold change vs veh, ABCC4 / RFU, LOC101060439 /// RAP1B / Fold change vs veh, LOC101060439 /// RAP1B / RFU, RFX7 / Fold change vs veh, RFX7 / RFU, GTPBP10 / Fold change vs veh, GTPBP10 / RFU, CNEP1R1 / Fold change vs veh, CNEP1R1 / RFU, BIVM-ERCC5 /// ERCC5 / Fold change vs veh, BIVM-ERCC5 /// ERCC5 / RFU, ILF3 / Fold change vs veh, ILF3 / RFU 11762660_at / Fold change /veh 11762660_at / RFU VCAN (11757783_s_at) / Fold change /veh VCAN (11757783_s_at) / RFU DDX43 (11728927_at) / Fold change /veh DDX43 (11728927_at) / RFU KRT8 (11758188_x_at) / Fold change /veh KRT8 (11758188_x_at) / RFU NKD1 (11759106_at) / Fold change /veh NKD1 (11759106_at) / RFU SRD5A1 (11742802_a_at) / Fold change /veh SRD5A1 (11742802_a_at) / RFU TPSAB1 /// TPSB2 (11721975_s_at) / Fold change /veh TPSAB1 /// TPSB2 (11721975_s_at) / RFU GSTM3 (11746129_a_at) / Fold change /veh GSTM3 (11746129_a_at) / RFU IL23R (11737362_x_at) / Fold change /veh IL23R (11737362_x_at) / RFU TMEM51 (11727254_a_at) / Fold change /veh TMEM51 (11727254_a_at) / RFU PIWIL2 (11732686_x_at) / Fold change /veh PIWIL2 (11732686_x_at) / RFU ORM1 (11744905_x_at) / Fold change /veh ORM1 (11744905_x_at) / RFU CCDC152 (11743942_at) / Fold change /veh CCDC152 (11743942_at) / RFU ECM1 (11717891_a_at) / Fold change /veh ECM1 (11717891_a_at) / RFU IL23R (11748794_a_at) / Fold change /veh IL23R (11748794_a_at) / RFU TNFAIP8L3 (11732012_x_at) / Fold change /veh TNFAIP8L3 (11732012_x_at) / RFU MBOAT4 (11741988_at) / Fold change /veh MBOAT4 (11741988_at) / RFU 11764193_at / Fold change /veh 11764193_at / RFU TMEM53 (11763286_at) / Fold change /veh TMEM53 (11763286_at) / RFU MAGEB2 (11727129_at) / Fold change /veh MAGEB2 (11727129_at) / RFU TMEM200A (11744735_a_at) / Fold change /veh TMEM200A (11744735_a_at) / RFU CCDC152 (11751479_a_at) / Fold change /veh CCDC152 (11751479_a_at) / RFU FAM211A (11726209_a_at) / Fold change /veh FAM211A (11726209_a_at) / RFU RGS16 (11746705_a_at) / Fold change /veh RGS16 (11746705_a_at) / RFU VCAN (11755009_s_at) / Fold change /veh VCAN (11755009_s_at) / RFU RHOB (11743442_s_at) / Fold change /veh RHOB (11743442_s_at) / RFU RGS16 (11720943_a_at) / Fold change /veh RGS16 (11720943_a_at) / RFU RGS16 (11720944_at) / Fold change /veh RGS16 (11720944_at) / RFU, VPS4B / Fold change vs veh, VPS4B / RFU, CREB1 / Fold change vs veh, CREB1 / RFU, DNAJC13 / Fold change vs veh, DNAJC13 / RFU, GNAQ / Fold change vs veh, GNAQ / RFU, CDK5R1 / Fold change vs veh, CDK5R1 / RFU, ZRANB3 / Fold change vs veh, ZRANB3 / RFU, CUL4A / Fold change vs veh, CUL4A / RFU, CCNY / Fold change vs veh, CCNY / RFU, UFL1 / Fold change vs veh, UFL1 / RFU, COG3 / Fold change vs veh, COG3 / RFU, DIAPH2 / Fold change vs veh, DIAPH2 / RFU, SKA2 / Fold change vs veh, SKA2 / RFU, AFF3 / Fold change vs veh, AFF3 / RFU, LMF1 / Fold change vs veh, LMF1 / RFU, IPO11 / Fold change vs veh, IPO11 / RFU, DFFB / Fold change vs veh, DFFB / RFU, FOXP1 / Fold change vs veh, FOXP1 / RFU, CARD8 / Fold change vs veh, CARD8 / RFU, STRN3 / Fold change vs veh, STRN3 / RFU, ADK / Fold change vs veh, ADK / RFU, RASSF2 / Fold change vs veh, RASSF2 / RFU, WIPF1 / Fold change vs veh, WIPF1 / RFU, LARP1B / Fold change vs veh, LARP1B / RFU, RASA1 / Fold change vs veh, RASA1 / RFU, RB1 / Fold change vs veh, RB1 / RFU, PPFIA1 / Fold change vs veh, PPFIA1 / RFU, MAT2A / Fold change vs veh, MAT2A / RFU, CCT5 / Fold change vs veh, CCT5 / RFU, WDR92 / Fold change vs veh, WDR92 / RFU, CUX1 / Fold change vs veh, CUX1 / RFU, TTC7A / Fold change vs veh, TTC7A / RFU, TMEM135 / Fold change vs veh, TMEM135 / RFU, DEPTOR / Fold change vs veh, DEPTOR / RFU, CPM / Fold change vs veh, CPM / RFU, DNAJB6 / Fold change vs veh, DNAJB6 / RFU, CACNA2D3 / Fold change vs veh, CACNA2D3 / RFU, DTX4 / Fold change vs veh, DTX4 / RFU, TFCP2 / Fold change vs veh, TFCP2 / RFU, GMCL1 /// GMCL1P1 / Fold change vs veh, GMCL1 /// GMCL1P1 / RFU, AEBP2 / Fold change vs veh, AEBP2 / RFU, SNHG1 /// SNORD22 /// SNORD25 /// SNORD26 /// SNORD27 /// SNORD28 /// SNORD29 /// SNORD31 / Fold change vs veh, SNHG1 /// SNORD22 /// SNORD25 /// SNORD26 /// SNORD27 /// SNORD28 /// SNORD29 /// SNORD31 / Fold change (Aza/veh), C12orf56 (ProbeSet 11735607_a_at) / Fold change (ACY-1035/veh), C12orf56 (ProbeSet 11735607_a_at) / Fold change (Aza/veh), FGFR1OP (ProbeSet 11751329_s_at) / Fold change (ACY-1035/veh), FGFR1OP (ProbeSet 11751329_s_at) / Fold change (Aza/veh), VPS36 (ProbeSet 11739960_a_at) / Fold change (ACY-1035/veh), VPS36 (ProbeSet 11739960_a_at) / RFU SYPL1 (11715823_x_at) / Fold change /veh SYPL1 (11715823_x_at) / RFU IGFBP7 (11715501_s_at) / Fold change /veh IGFBP7 (11715501_s_at) / RFU REEP3 (11722064_at) / Fold change /veh REEP3 (11722064_at) / RFU IGLL1 (11728026_x_at) / Fold change /veh IGLL1 (11728026_x_at): dose or concentration left out as unconfirmed
Conditions: MV-4-11 cells, 48 hours

For Nc1ncn([C@@H]2O[C@H](CO)[C@@H](O)[C@H]2O)c(=O)n1 [azacitidine], the “Fold change /veh CYB561 (11721691_x_at)” value was 1.09.
